Measured values: PMC10180197, “Novel Pyrimidine Derivatives as Antioxidant and Anticancer Agents: Design, Synthesis and Molecular Modeling Studies” (Molecules, 2023)
Like-named read-outs stand apart in the source and are kept apart here.

What was measured:
[1] = Inhibition of AAPH induced linoleic acid peroxidation
Method: For the lipid peroxidation study, 2,2′-Azobis(2-methylpropionamidine) dihydrochloride (AAPH) was used as the generator of peroxy radicals and sodium linoleate as the substrate that undergoes peroxidation. The conversion of linoleic acid to 13-hydroperoxy-linoleic acid was recorded at 234 nm. The change of absorbance reflects the possible antioxidant activity of the tested compounds, in comparison with the reference compound, Trolox.
In vitro study was performed as reported previously by our group. AAPH was used as a free radical generator of alkyl peroxyl radicals. For this experimental procedure, 10 μL of the tested compound (from the stock solution), 10 μL sodium linoleate (16 mM), 50 μL AAPH (40 mM) and 930 μL phosphate-buffered solution (pH 7.4) were added in a UV cuvette (1 mL), pre thermostated at 37 °C. The ability of the compounds to prevent the oxidation of linoleic acid from alkyl peroxyl radicals was evaluated by recording the change of absorbance at 234 nm, due to the conversion of linoleic acid to 13-hydroperoxy-linoleic acid. Trolox was used as the reference.

[2] = biological target: T1, soybean lipoxygenase (Glycine max, UniProt P08170); assay: Inhibition of soybean lipoxygenase; format: biochemical; settings: for IC50: cells of the mixed column with μM, read-out: LOX IC50; for inhibition at 100 µM: read-out: LOX % Inhibition 100 μM
T1 construct: purchased Sigma Aldrich- Merck KGaA, Darmstadt, Germany
T1 sequence (P08170 1-839): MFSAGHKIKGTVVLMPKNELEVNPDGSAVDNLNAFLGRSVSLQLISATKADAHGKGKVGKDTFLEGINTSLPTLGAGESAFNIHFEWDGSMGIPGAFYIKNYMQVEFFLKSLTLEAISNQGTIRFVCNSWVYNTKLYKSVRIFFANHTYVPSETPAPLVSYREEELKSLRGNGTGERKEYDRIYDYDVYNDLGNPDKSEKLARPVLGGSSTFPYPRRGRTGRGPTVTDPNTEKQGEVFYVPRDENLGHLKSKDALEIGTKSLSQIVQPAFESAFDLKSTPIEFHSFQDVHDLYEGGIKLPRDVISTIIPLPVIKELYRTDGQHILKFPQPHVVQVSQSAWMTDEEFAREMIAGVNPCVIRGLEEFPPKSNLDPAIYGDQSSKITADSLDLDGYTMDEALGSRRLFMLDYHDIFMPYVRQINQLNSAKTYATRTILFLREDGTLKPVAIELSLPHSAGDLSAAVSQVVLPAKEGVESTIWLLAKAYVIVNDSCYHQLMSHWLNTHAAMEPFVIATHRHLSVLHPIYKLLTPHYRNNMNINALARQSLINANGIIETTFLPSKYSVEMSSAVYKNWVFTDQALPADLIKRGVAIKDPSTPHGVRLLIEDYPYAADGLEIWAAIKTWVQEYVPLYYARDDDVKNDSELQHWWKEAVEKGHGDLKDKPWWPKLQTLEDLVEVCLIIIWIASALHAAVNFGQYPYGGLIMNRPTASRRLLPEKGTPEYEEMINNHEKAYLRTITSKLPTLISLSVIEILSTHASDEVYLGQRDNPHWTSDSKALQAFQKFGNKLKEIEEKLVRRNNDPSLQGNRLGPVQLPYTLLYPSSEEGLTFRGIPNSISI
Description: Lipoxygenase (LOX) is the key enzyme in the biosynthesis of inflammatory mediators; thus, it is considered a target for inflammatory diseases. Soybean LOX is a plant enzyme that has been used widely as a prototype for studying the functional and structural properties of the homologous family of lipoxygenases, presenting satisfactory homology with the human 5-LOX [42]. Linoleic acid is the most common substrate in plant LOX. […] Lipophilicity is considered one of the most important parameters with regard to LOX inhibitors according to the literature.
In vitro study was performed as reported previously by our group. In this experiment, 10 μL of the tested compound (from the stock solution) were incubated with 100 μL sodium linoleate (diluted in Tris buffer), 200 μL LOX solution (1:9 × 10^−4 w/v in saline) and 690 μL Tris buffer (pH 9.0) at room temperature. The absorbance was measured at 234 nm, where the change of absorbance was recorded due to the formation of 13-hydroperoxy-linoleic acid. […] In order to determine the IC50 values, different concentrations were used.

[3] = MTT cell viability assay, HaCaT; format: cell-based, human; settings: human, HaCaT cells (epidermal keratinocyte cell line); for viability at 24 h, 10 μM: 10 μΜ; for viability at 24 h, 50 μM: 50 μΜ
Method: (§1) The MTT (3-(4,5-dimethylthiazol-2-yl)-2,5-diphenyltetrazolium bromide) assay is a colorimetric method that is used for the evaluation of cell viability. MTT is converted into colored formazan crystals, indicating the activity of mitochondria and therefore the viability of the cells. Unlike dead cells, the metabolic processes of living cells are functional, meaning that the dehydrogenase enzymes are able to reduce the yellow MTT salt solution to purple crystals, at 37 °C. The intensity of the sample’s color, due to the amount of formazan crystals, is proportional to the number of the living cells in it. Additionally, the colored product is dissolved in various solubilizing agents, such as dimethyl sulfoxide (DMSO). The colored products can be quantitatively measured at 450 nm with a plate reader spectrophotometer. In this study, the human epidermal keratinocyte cell line (HaCaT) was treated with different concentrations (100 μM, 50 μM, 10 μM and 1 μM) of the tested compounds and then the viability rates at each effect were calculated.
(§2) Τhe MTT assay was used to evaluate cell viability or cell toxicity, depending on the cell line being tested. The experimental procedure was performed in a 96-well plate, where the cells were seeded and incubated (37 °C, 5% CO2) for 24 h to grow and cover the surface of the wells. Τhe seeding concentrations for the HaCaT and A549 cells were 30 × 10^4 cells/mL and 20 × 10^4 cells/mL, respectively. After the first incubation, the solutions of the compounds (with different concentrations) were added to the adherent cells and incubated for another 24 h. The compounds were tested in triplicate against the control (only cells in medium), the blank (only medium) and the positive/negative control (cells in 100 μM silibinin solution) triplicates. Silibinin, a flavonoid with known anticancer activities, was used as a negative control for the cell viability assay and as positive control for the cytotoxicity testing assay. The light-sensitive MTT-standard solution was prepared by dissolving 1 mg/mL MTT in PBS and then filtrated (in a […] filter (Millipore, Carrigtwohill, Ireland)). On the third day, an appropriate amount of ΜΤΤ solution was added to each well and the plate was incubated for 4 h. During the incubation time, the formazan crystals were formed, which were then dissolved with 100 μL DMSO per well. Finally, the plate was stirred for 30 min, and the optical density (OD) was measured in a plate reader spectrophotometer at 450 nm.

[4] = test system: HaCaT cell line; assay: MTT cell viability assay, HaCaT; format: cell-based, human; settings: 24 h
Method: as §1, §2

[5] = test system: A549 cell line; assay: MTT cytotoxicity assay, A549; format: cell-based, human; settings: 24 h; for cytotoxicity at 10 µM / cytotoxicity at 50 µM / cytotoxicity at 100 µM: Homo sapiens; for cytotoxicity at 10 µM: read-out: % Cell Toxicity 10 μΜ; for cytotoxicity at 50 µM: read-out: % Cell Toxicity 50 μΜ; for cytotoxicity at 100 µM: A549, 100 μΜ, read-out: % Cell Toxicity 100 μΜ
Method: The compounds of this study were also tested for their cytotoxic effects against the adenocarcinomic human alveolar basal epithelial cell line (A549) at different concentrations (100 μM, 75 μΜ, 50 μM and 10 μM).
as §2

[6] = 100 μM, cells of the mixed column without μM

| IC50 [2] | LOX % Inhibition 100 μM [2, 6] | inhibition at 100 µM [2, 6] | SMILES | AAPH % Inhibition 100 μM [1] | AAPH % Inhibition 100 μM ([1]; 100 µM) | viability at 24 h, 1 μM ([3]; 1 μΜ) | % Cell Viability 10 μΜ ([4]; 10 μΜ) | % Cell Viability 100 μΜ [4] | cytotoxicity at 10 µM ([5]; A549, 10 μΜ) | cytotoxicity at 50 µM ([5]; A549, 50 μΜ) | cytotoxicity at 100 µM [5] | viability at 24 h, 10 μM [3] | viability at 24 h, 50 μM [3] | viability at 24 h, 100 μM ([3]; 100 μΜ) | % Cell Toxicity 10 μΜ ([5]; A549, 10 μΜ) | % Cell Toxicity 50 μΜ ([5]; A549, 50 μΜ) |
| --- | --- | --- | --- | --- | --- | --- | --- | --- | --- | --- | --- | --- | --- | --- | --- | --- |
| 47.5 µM |  |  | O=c1[nH]c(=S)[nH]c2nc(-c3ccc(Cl)cc3)cc(-c3ccc(Cl)cc3)c12 [Compound 2f, 5,7-bis(4-chlorophenyl)-2-thioxo-2,3-dihydropyrido [2,3-d]pyrimidin-4(1H)-one] | no activity | no | 73.4% | no | no | 48.6% | 88.1% | 100% |  |  |  |  |  |
| 17 µM |  |  | O=C(/C=C/c1ccc(Cl)cc1Cl)c1ccccc1 [Compound 1g, (E)-3-(2,4-dichlorophenyl)-1-phenylprop-2-en-1-one] | 39% |  |  |  |  |  |  | 10.8% | 100% | 32.7% | 2.1% | no | no |
|  | no |  | O=C(/C=C/c1ccc(Cl)cc1Cl)c1ccc(Cl)cc1 [Compound 1h, (E)-1-(4-chlorophenyl)-3-(2,4-dichlorophenyl)prop-2-en-1-one] | 2% |  |  |  | no | 49.1% | 81.1% | 100% | 25.4% |  |  |  |  |
| 72.5 µM |  |  | O=C(/C=C/c1cccs1)c1ccc(Cl)cc1 [Compound 1d, (E)-1-(4-chlorophenyl)-3-(thiophen-2-yl)prop-2-en-1-one] | 8% |  |  |  | no | 47.4% | 83.2% | 100% | 72.8% | 53% |  |  |  |
| 76 µM |  |  | O=c1[nH]c(=S)[nH]c2nc(-c3ccccc3)cc(-c3ccc(Cl)cc3)c12 [Compound 2e, 5-(4-chlorophenyl)-7-phenyl-2-thioxo-2,3-dihydropyrido [2,3-d]pyrimidin-4(1H)-one] | 33% |  |  |  | no | 48% | 83.9% | 82.1% | 22.9% |  |  |  |  |
|  |  | 26% | O=C(/C=C/c1ccccc1)c1ccccc1 [Compound 1a, (E)-1,3-diphenylprop-2-en-1-one] | 6% |  |  |  | no | 41.8% | 81.6% | 100% | 55.1% |  |  |  |  |
| 55.5 µM |  |  | O=C(/C=C/c1ccc(Cl)cc1)c1ccccc1 [Compound 1e, (E)-3-(4-chlorophenyl)-1-phenylprop-2-en-1-one] | 4% |  |  |  | no |  | 6.8% | 36.8% | 100% | 89.9% |  |  |  |
| 68.5 µM |  |  | O=c1[nH]c(=S)[nH]c2nc(-c3ccccc3)cc(-c3cccs3)c12 [Compound 2c, 7-phenyl-5-(thiophen-2-yl)-2-thioxo-2,3-dihydropyrido [2,3-d]pyrimidin-4(1H)-one] | 52% |  |  |  | no | 49.4% | 63.6% | 100% | 16.1% |  |  |  |  |
|  |  | 6% | O=c1[nH]c(=S)[nH]c2nc(-c3ccc(Cl)cc3)cc(-c3ccccc3)c12 [Compound 2b, 7-(4-chlorophenyl)-5-phenyl-2-thioxo-2,3-dihydropyrido [2,3-d]pyrimidin-4(1H)-one] | 62% |  |  |  | no | 47.9% | 83.5% | 100% | 75.1% | 26% |  |  |  |
| 42 µM |  |  | O=c1[nH]c(=S)[nH]c2nc(-c3ccccc3)cc(-c3ccccc3)c12 [Compound 2a, 5,7-diphenyl-2-thioxo-2,3-dihydropyrido [2,3-d]pyrimidin-4(1H)-one] | 52% |  |  |  | no | 56.4% | 75% | 80.9% | 100% | 85.6% |  |  |  |
|  |  | 4% | O=C(/C=C/c1ccc(Cl)cc1)c1ccc(Cl)cc1 [Compound 1f, (E)-1,3-bis(4-chlorophenyl)prop-2-en-1-one] | 51% |  |  |  | no | 48.9% | 67.6% | 100% | 100% | 57% |  |  |  |
|  |  | 39% | O=C(/C=C/c1ccccc1)c1ccc(Cl)cc1 [Compound 1b, (E)-1-(4-chlorophenyl)-3-phenylprop-2-en-1-one] | 51% |  |  |  | no | 49.2% | 88.1% | 100% | 28.1% |  |  |  |  |
